{"source": "paper PMC9270327", "about": "(Communications Biology, 2022)", "target": "TMPRSS2 (Homo sapiens, UniProt O15393)", "sequence (O15393 whole entry)": "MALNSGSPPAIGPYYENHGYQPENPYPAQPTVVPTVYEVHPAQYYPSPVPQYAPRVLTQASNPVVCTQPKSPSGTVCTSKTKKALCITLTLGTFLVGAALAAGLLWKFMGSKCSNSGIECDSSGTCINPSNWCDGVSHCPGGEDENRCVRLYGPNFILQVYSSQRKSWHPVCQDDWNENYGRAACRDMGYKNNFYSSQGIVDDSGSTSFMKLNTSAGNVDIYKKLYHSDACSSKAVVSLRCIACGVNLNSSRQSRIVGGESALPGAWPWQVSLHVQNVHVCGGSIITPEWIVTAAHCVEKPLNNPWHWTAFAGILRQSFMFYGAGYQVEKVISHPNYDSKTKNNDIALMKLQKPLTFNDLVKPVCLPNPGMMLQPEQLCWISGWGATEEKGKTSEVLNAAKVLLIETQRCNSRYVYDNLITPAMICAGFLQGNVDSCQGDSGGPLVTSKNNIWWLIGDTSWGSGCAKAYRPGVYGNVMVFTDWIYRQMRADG", "assay": "Cell culture medium stability: residual TMPRSS2 inhibition after incubation in medium", "protocol": "The activity of the compounds against the recombinant human enzymes was determined in enzyme inhibition assays. […] The measurements were performed on a Tecan infinite® M1000 and the fluorescence intensity was measured by exciting the AMC fluorophore at 380 nm wavelength and recording emission at 460 nm wavelength. […] Fluorescence intensities and absorption were measured every 2 min for 2 h or as endpoint after 2 h. […] To determine the IC50 values, the concentration-response data were plotted with the program GraphPad prism version 8.4.2 (San Diego, California) and a nonlinear regression fit with the equation [Inhibitor] vs. normalized response was applied. The inhibitory constant Ki was calculated from the IC50 values using the Cheng–Prusoff equation (Ki = IC50/[S]/KM) for competitive reversible inhibitors[66].\nThe stability of the inhibitors was measured according to a modified procedure from ref. [67]. […] At indicated timepoints, 100 µL samples were taken and mixed with 200 µL of ethanol to precipitate proteins. […] The supernatant was aspirated and analyzed using analytical HPLC. The residual inhibitory constants Ki after incubation was assessed by mixing serial dilutions of the inhibitor with recombinant TMPRSS2 as described above.\nwere mixed with recombinant TMPRSS2, followed by the addition of the fluorogenic reference\nShown are the means ± SD of n=1 experiment performed in triplicates."}
{"substance": "ace-Arg-Pro-Arg-kbt [Compound 2]", "values": [{"measurement": "Residual TMPRSS2 activity, Mean (0 nM = 100)", "setting": "inhibitor 0.0167 nM, 0 min in cell culture medium", "result": 98.9717}, {"measurement": "Residual TMPRSS2 activity, Mean (0 nM = 100)", "setting": "inhibitor 0.0167 nM, 30 min in cell culture medium", "result": 101.323}, {"measurement": "Residual TMPRSS2 activity, Mean (0 nM = 100)", "setting": "inhibitor 0.0167 nM, 60 min in cell culture medium", "result": 96.8723}, {"measurement": "Residual TMPRSS2 activity, Mean (0 nM = 100)", "setting": "inhibitor 0.0167 nM, 120 min in cell culture medium", "result": 98.5343}, {"measurement": "Residual TMPRSS2 activity, Mean (0 nM = 100)", "setting": "inhibitor 0.0167 nM, 24 h in cell culture medium", "result": 98.1961}, {"measurement": "Residual TMPRSS2 activity, Mean (0 nM = 100)", "setting": "inhibitor 0.0167 nM, 10 d in cell culture medium", "result": 98.4437}, {"measurement": "Residual TMPRSS2 activity, Mean (0 nM = 100)", "setting": "inhibitor 0.0167 nM, positive ctrl", "result": 97.6368}, {"measurement": "Residual TMPRSS2 activity, Mean (0 nM = 100)", "setting": "inhibitor 0.167 nM, 0 min in cell culture medium", "result": 100.63}, {"measurement": "Residual TMPRSS2 activity, Mean (0 nM = 100)", "setting": "inhibitor 0.167 nM, 30 min in cell culture medium", "result": 100.761}, {"measurement": "Residual TMPRSS2 activity, Mean (0 nM = 100)", "setting": "inhibitor 0.167 nM, 60 min in cell culture medium", "result": 103.84}, {"measurement": "Residual TMPRSS2 activity, Mean (0 nM = 100)", "setting": "inhibitor 0.167 nM, 120 min in cell culture medium", "result": 96.4654}, {"measurement": "Residual TMPRSS2 activity, Mean (0 nM = 100)", "setting": "inhibitor 0.167 nM, 24 h in cell culture medium", "result": 97.7945}, {"measurement": "Residual TMPRSS2 activity, Mean (0 nM = 100)", "setting": "inhibitor 0.167 nM, 10 d in cell culture medium", "result": 101.036}, {"measurement": "Residual TMPRSS2 activity, Mean (0 nM = 100)", "setting": "inhibitor 0.167 nM, positive ctrl", "result": 98.5654}, {"measurement": "Residual TMPRSS2 activity, Mean (0 nM = 100)", "setting": "inhibitor 1.665 nM, 0 min in cell culture medium", "result": 97.2536}, {"measurement": "Residual TMPRSS2 activity, Mean (0 nM = 100)", "setting": "inhibitor 1.665 nM, 30 min in cell culture medium", "result": 96.1305}, {"measurement": "Residual TMPRSS2 activity, Mean (0 nM = 100)", "setting": "inhibitor 1.665 nM, 60 min in cell culture medium", "result": 95.956}, {"measurement": "Residual TMPRSS2 activity, Mean (0 nM = 100)", "setting": "inhibitor 1.665 nM, 120 min in cell culture medium", "result": 95.462}, {"measurement": "Residual TMPRSS2 activity, Mean (0 nM = 100)", "setting": "inhibitor 1.665 nM, 24 h in cell culture medium", "result": 97.8646}, {"measurement": "Residual TMPRSS2 activity, Mean (0 nM = 100)", "setting": "inhibitor 1.665 nM, 10 d in cell culture medium", "result": 97.0442}, {"measurement": "Residual TMPRSS2 activity, Mean (0 nM = 100)", "setting": "inhibitor 1.665 nM, positive ctrl", "result": 88.6541}, {"measurement": "Residual TMPRSS2 activity, Mean (0 nM = 100)", "setting": "inhibitor 16.65 nM, 0 min in cell culture medium", "result": 83.5545}, {"measurement": "Residual TMPRSS2 activity, Mean (0 nM = 100)", "setting": "inhibitor 16.65 nM, 30 min in cell culture medium", "result": 80.8705}, {"measurement": "Residual TMPRSS2 activity, Mean (0 nM = 100)", "setting": "inhibitor 16.65 nM, 60 min in cell culture medium", "result": 72.3193}, {"measurement": "Residual TMPRSS2 activity, Mean (0 nM = 100)", "setting": "inhibitor 16.65 nM, 120 min in cell culture medium", "result": 83.5842}, {"measurement": "Residual TMPRSS2 activity, Mean (0 nM = 100)", "setting": "inhibitor 16.65 nM, 24 h in cell culture medium", "result": 87.4426}, {"measurement": "Residual TMPRSS2 activity, Mean (0 nM = 100)", "setting": "inhibitor 16.65 nM, 10 d in cell culture medium", "result": 88.0057}, {"measurement": "Residual TMPRSS2 activity, Mean (0 nM = 100)", "setting": "inhibitor 16.65 nM, positive ctrl", "result": 59.7774}, {"measurement": "Residual TMPRSS2 activity, Mean (0 nM = 100)", "setting": "inhibitor 166.5 nM, 0 min in cell culture medium", "result": 18.9266}, {"measurement": "Residual TMPRSS2 activity, Mean (0 nM = 100)", "setting": "inhibitor 166.5 nM, 30 min in cell culture medium", "result": 17.6545}, {"measurement": "Residual TMPRSS2 activity, Mean (0 nM = 100)", "setting": "inhibitor 166.5 nM, 60 min in cell culture medium", "result": 24.0301}, {"measurement": "Residual TMPRSS2 activity, Mean (0 nM = 100)", "setting": "inhibitor 166.5 nM, 120 min in cell culture medium", "result": 22.2899}, {"measurement": "Residual TMPRSS2 activity, Mean (0 nM = 100)", "setting": "inhibitor 166.5 nM, 24 h in cell culture medium", "result": 22.0487}, {"measurement": "Residual TMPRSS2 activity, Mean (0 nM = 100)", "setting": "inhibitor 166.5 nM, 10 d in cell culture medium", "result": 39.6688}, {"measurement": "Residual TMPRSS2 activity, Mean (0 nM = 100)", "setting": "inhibitor 166.5 nM, positive ctrl", "result": 18.9416}, {"measurement": "Residual TMPRSS2 activity, Mean (0 nM = 100)", "setting": "inhibitor 1665 nM, 0 min in cell culture medium", "result": -1.499}, {"measurement": "Residual TMPRSS2 activity, Mean (0 nM = 100)", "setting": "inhibitor 1665 nM, 30 min in cell culture medium", "result": 5.536}, {"measurement": "Residual TMPRSS2 activity, Mean (0 nM = 100)", "setting": "inhibitor 1665 nM, 60 min in cell culture medium", "result": 0.2889}, {"measurement": "Residual TMPRSS2 activity, Mean (0 nM = 100)", "setting": "inhibitor 1665 nM, 120 min in cell culture medium", "result": -1.86}, {"measurement": "Residual TMPRSS2 activity, Mean (0 nM = 100)", "setting": "inhibitor 1665 nM, 24 h in cell culture medium", "result": -0.886}, {"measurement": "Residual TMPRSS2 activity, Mean (0 nM = 100)", "setting": "inhibitor 1665 nM, 10 d in cell culture medium", "result": 10.1282}, {"measurement": "Residual TMPRSS2 activity, Mean (0 nM = 100)", "setting": "inhibitor 1665 nM, positive ctrl", "result": 0.02381}]}
